The target of this experiment is T1, MMP2 (Homo sapiens, UniProt P08253).
T1 sequence (P08253 110-660): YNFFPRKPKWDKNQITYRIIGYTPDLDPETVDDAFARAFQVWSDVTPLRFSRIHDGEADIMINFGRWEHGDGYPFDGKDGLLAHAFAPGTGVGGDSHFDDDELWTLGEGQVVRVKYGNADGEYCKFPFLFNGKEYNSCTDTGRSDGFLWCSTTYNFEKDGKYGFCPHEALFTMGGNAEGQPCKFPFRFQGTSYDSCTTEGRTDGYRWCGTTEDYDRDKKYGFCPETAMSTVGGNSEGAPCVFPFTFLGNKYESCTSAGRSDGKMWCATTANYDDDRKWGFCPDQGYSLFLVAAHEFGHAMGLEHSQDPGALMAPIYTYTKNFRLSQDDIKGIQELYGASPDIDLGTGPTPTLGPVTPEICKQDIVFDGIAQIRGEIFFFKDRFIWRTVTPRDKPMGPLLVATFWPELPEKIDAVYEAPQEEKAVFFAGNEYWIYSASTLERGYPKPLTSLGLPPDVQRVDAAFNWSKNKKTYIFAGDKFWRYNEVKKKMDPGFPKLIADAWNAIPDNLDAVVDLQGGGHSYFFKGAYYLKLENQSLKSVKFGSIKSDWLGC
Kind of experiment: Inhibitory effects on human MMP2 (Method 1), enzyme assay with MOCAc-Pro-Leu-Gly-Leu-A2pr(Dnp)-Ala-Arg-NH2 substrate, 96-well. In kind it is biochemical. The conditions noted are these: Test Example No. 1-1 (Method 1, 96-well microplate); read-out: Human MMP2, IC50. The procedure:
In a reaction solution [50 mmol/L Tris-HCl (pH 7.5), 150 mmol/L NaCl, 10 mmol/L CaCl2, 0.05% Brij L23], 100 μg/mL human recombinant MMP2 enzyme and 1 mmol/L 4-Aminophenylmercuric acetate were mixed together, and reacted at 37° C. for 60 minutes. The human MMP2 activated through the reaction was poured into a 96-well microplate to reach a final concentration of 0.7 or 7 ng/mL.

pIC50: −log10 of the molar value. *1 amine or outer side, *2 acyl side, *3 side chain or, on linkers, in order; H or OH if unused. Where a SMILES comes first, the peptide text is derived from it. [ ]: non-standard residue; d: D form. The star is where a group is joined. Benzoyl(4-(4-EtNHCO-PhO)) = CCNC(=O)c1ccc(Oc2ccc(C(=O)*)cc2)cc1; Benzoyl(4-O-C6H4-4-CONHMe) = CNC(=O)c1ccc(Oc2ccc(C(=O)*)cc2)cc1; Benzoyl(4-OPh(4-CONH2)) = NC(=O)c1ccc(Oc2ccc(C(=O)*)cc2)cc1; X4 = NC(=O)CCCCNC(=O)c1ccc(Oc2ccc(C(=O)*)cc2)cc1; X12 = O=S(=O)(c1ccc(-c2cn(-c3ccccc3)nn2)cc1)*; X2 = CCOc1ccc(C(=O)Nc2ccc(S(=O)(=O)*)cc2)cc1; Benzoyl(4-OPh) = O=C(c1ccc(Oc2ccccc2)cc1)*; d(γGlu) = O=C(O)[C@@H](CCC(=O)[*:2])N[*:1]; d(βAsp) = O=C(O)[C@@H](CC(=O)[*:2])N[*:1]; X13 = Cc1ccc(C#Cc2ccc(S(=O)(=O)*)s2)cc1; X5 = O=S(=O)(c1ccc(-c2ccc(CO)cc2)cc1)*; εLys = N[C@@H](CCCCN[*:1])C(=O)[*:2]; NMeI = CC[C@H](C)[C@H](NC)C(=O)O; NMeT = CN[C@H](C(=O)O)[C@@H](C)O; NMeE = CN[C@@H](CCC(=O)O)C(=O)O; NMeN = CN[C@@H](CC(N)=O)C(=O)O; Dap(Me) = CNC[C@H](N)C(=O)O; NMeM = CN[C@@H](CCSC)C(=O)O; β3hP = O=C(O)C[C@@H]1CCCN1; NMeA = CN[C@@H](C)C(=O)O; Orn = NCCC[C@H](N)C(=O)O; Dab = NCC[C@H](N)C(=O)O; Dap = NC[C@H](N)C(=O)O; Aib = CC(C)(N)C(=O)O; Ahx = NCCCCCC(=O)O; Ava = NCCCCC(=O)O; GABA = NCCCC(=O)O; βAla = NCCC(=O)O; Sar = CNCC(=O)O

As usually defined, the pIC50 is −log10 of the IC50, conventionally taken in molar units. With `CC[C@H](C)[C@@H](C(=O)NC(C)(C)C(N)=O)N(C)C(=O)[C@H](CC(C)C)NC(=O)[C@H](C)NC(=O)[C@H](CC(=O)O)NC(=O)[C@H](C)N(C)C(=O)CCCNC(=O)c1ccc(Oc2ccccc2)cc1` [Compound 96] ({Benzoyl(4-OPh)-GABA}-[NMeA]DAL[NMeI][Aib]-NH2), the pIC50 is 9.13.
Turning to `CC(C)C[C@H](NC(=O)[C@H](CCN)NC(=O)[C@H](CC(=O)O)NC(=O)[C@H](CC(N)=O)NC(=O)CCCNC(=O)c1ccc(Oc2ccccc2)cc1)C(=O)N(C)[C@@H](CCC(=O)O)C(=O)N1CCC[C@H]1C(N)=O` [Compound 109] ({Benzoyl(4-OPh)-GABA}-ND[Dab]L[NMeE]P-NH2; N-terminus assumed), the pIC50 was 9.15.
For the molecule `CC[C@H](C)[C@@H](C(=O)N1CCC[C@H]1C(N)=O)N(C)C(=O)[C@H](CC(C)C)NC(=O)[C@H](C)NC(=O)[C@H](CC(=O)O)NC(=O)[C@H](CCSC)N(C)C(=O)CCCNC(=O)c1ccc(Oc2ccccc2)cc1` [Compound 122] ({Benzoyl(4-OPh)-GABA}-[NMeM]DAL[NMeI]P-NH2; N-terminus assumed), the negative logarithm of the IC50 (pIC50) was 9.80.
On to `CC[C@H](C)[C@@H](C(=O)NCCCC[C@H](N)C(N)=O)N(C)C(=O)[C@H](CC(C)C)NC(=O)[C@H](CCN)NC(=O)[C@H](CC(=O)O)NC(=O)[C@H](NC(=O)[C@@H](N)CCCNC(=O)c1ccc(Oc2ccc(C(N)=O)cc2)cc1)[C@H](C)O` [Compound 554] (H-[Orn](Benzoyl(4-OPh(4-CONH2)))[dT]D[Dab]L[NMeI][εLys]-NH2), for which the pIC50 is 9.05.
The value for `CC(C)C[C@H](NC(=O)[C@H](CN)NC(=O)C[C@@H](NS(=O)(=O)c1ccc(-c2ccc(CO)cc2)cc1)C(=O)O)C(=O)N(C)[C@@H](CCC(=O)O)C(=O)N1CCC[C@H]1CC(N)=O` [Compound 637] ({X5-d(βAsp)}-[Dap]L[NMeE][β3hP]-NH2; N-terminus assumed) was 9.32; that for `CNC(=O)c1ccc(Oc2ccc(C(=O)NCCCCCC(=O)N[C@@H](CCCCN)C(=O)N[C@@H](CC(=O)O)C(=O)N[C@@H](CCN)C(=O)N[C@@H](CC(C)C)C(=O)N(C)[C@@H](CCC(=O)O)C(=O)N3CCC[C@H]3CC(N)=O)cc2)cc1` [Compound 186] ({Benzoyl(4-O-C6H4-4-CONHMe)-Ahx}-KD[Dab]L[NMeE][β3hP]-NH2; N-terminus assumed) was 8.70; that for `CSCC[C@@H](C(=O)N1CCC[C@H]1C(N)=O)N(C)C(=O)[C@H](CC(C)C)NC(=O)[C@H](C)NC(=O)[C@H](CC(=O)O)NC(=O)[C@H](CC(N)=O)NC(=O)CCNS(=O)(=O)c1ccc(C#Cc2ccc(C)cc2)s1` [Compound 587, N-{5-[(4-methylphenyl)ethynyl]thiophene-2-sulfonyl}-β-alanyl-L-asparaginyl-L-α-aspartyl-L-alanyl-L-leucyl-N-methyl-L-methionyl-L-prolinamide] ({X13-βAla}-NDAL[NMeM]P-NH2) was 9.72.
As for `CC[C@H](C)[C@@H](C(=O)N1CCC[C@H]1C(N)=O)N(C)C(=O)[C@H](CC(C)C)NC(=O)[C@H](C)NC(=O)[C@H](CC(=O)O)NC(=O)[C@H]([C@@H](C)O)N(C)C(=O)CCCNC(=O)c1ccc(Oc2ccccc2)cc1` [Compound 131] ({Benzoyl(4-OPh)-GABA}-[NMeT]DAL[NMeI]P-NH2; N-terminus assumed), the pIC50 is 9.44.
With `CCNC(=O)c1ccc(Oc2ccc(C(=O)NCCCCCC(=O)N[C@@H](CCCNC(=N)N)C(=O)N[C@@H](CC(=O)O)C(=O)N[C@@H](CCN)C(=O)N[C@@H](CC(C)C)C(=O)N(C)[C@H](C(=O)N3CCC[C@H]3CC(N)=O)[C@@H](C)CC)cc2)cc1` [Compound 198] ({Benzoyl(4-(4-EtNHCO-PhO))-Ahx}-RD[Dab]L[NMeI][β3hP]-NH2; N-terminus assumed) the figure was 8.29; with `CC(C)C[C@H](NC(=O)[C@H](CCN)NC(=O)[C@H](CC(=O)O)NC(=O)[C@H](CCC(=O)O)NC(=O)CCCNC(=O)c1ccc(Oc2ccccc2)cc1)C(=O)N(C)[C@@H](CCC(=O)O)C(=O)N1CCC[C@H]1CC(N)=O` [Compound 144] ({Benzoyl(4-OPh)-GABA}-ED[Dab]L[NMeE][β3hP]-NH2; N-terminus assumed), 9.59.
Regarding `CC[C@H](C)[C@@H](C(=O)N1CCC[C@H]1CC(N)=O)N(C)C(=O)[C@H](CC(C)C)NC(=O)[C@H](CNC)NC(=O)[C@H](CC(=O)O)NC(=O)[C@H](CC(N)=O)N(C)C(=O)CCCNC(=O)c1ccc(Oc2ccccc2)cc1` [Compound 154] ({Benzoyl(4-OPh)-GABA}-[NMeN]D[Dap(Me)]L[NMeI][β3hP]-NH2; N-terminus assumed), the pIC50 was 9.36.
As to `CC[C@H](C)[C@@H](C(=O)N1CCC[C@H]1C(N)=O)N(C)C(=O)[C@H](CC(C)C)NC(=O)[C@H](C)NC(=O)[C@H](CC(=O)O)NC(=O)[C@H](CCC(=O)O)N(C)C(=O)CCCNC(=O)c1ccc(Oc2ccccc2)cc1` [Compound 126] ({Benzoyl(4-OPh)-GABA}-[NMeE]DAL[NMeI]P-NH2; N-terminus assumed), the pIC50 is 9.54.
As to `CC(C)C[C@H](NC(=O)[C@H](CCN)NC(=O)[C@H](CC(=O)O)NC(=O)[C@H](CCC(=O)O)NC(=O)CCCCNC(=O)c1ccc(Oc2ccc(C(=O)NCCCCC(N)=O)cc2)cc1)C(=O)N(C)[C@@H](CCC(=O)O)C(=O)N1CCC[C@H]1CC(N)=O` [Compound 199] ({X4-Ava}-ED[Dab]L[NMeE][β3hP]-NH2; N-terminus assumed), the pIC50 is 8.85.
As to `CC[C@H](C)[C@@H](C(=O)N1CCC[C@H]1CC(N)=O)N(C)C(=O)[C@H](CC(C)C)NC(=O)[C@H](CCN)NC(=O)CC[C@@H](NS(=O)(=O)c1ccc(-c2cn(-c3ccccc3)nn2)cc1)C(=O)O` [Compound 608, N-[(2S)-4-amino-1-({(2S)-1-[{(2S,3S)-1-[(2S)-2-(2-amino-2-oxoethyl)pyrrolidin-1-yl]-3-methyl-1-oxopentan-2-yl}(methyl)amino]-4-methyl-1-oxopentan-2-yl}amino)-1-oxobutan-2-yl]-N^2-[4-(1-phenyl-1H-1,2,3-triazol-4-yl)benzene-1-sulfonyl]-D-glutamine] ({X12-d(γGlu)}-[Dab]L[NMeI][β3hP]-NH2), the pIC50 was 9.47.
With `CCOc1ccc(C(=O)Nc2ccc(S(=O)(=O)N[C@H](CCC(=O)N[C@@H](CCN)C(=O)N[C@@H](CC(C)C)C(=O)N(C)[C@@H](CCC(=O)O)C(=O)N3CCC[C@H]3CC(N)=O)C(=O)O)cc2)cc1` [Compound 702] ({X2-d(γGlu)}-[Dab]L[NMeE][β3hP]-NH2; N-terminus assumed) the figure was 9.60.
As to `CC[C@H](C)[C@@H](C(=O)N1CCC[C@H]1C(N)=O)N(C)C(=O)[C@H](CC(C)C)NC(=O)[C@H](C)NC(=O)[C@H](CC(=O)O)NC(=O)CN(C)C(=O)CCCNC(=O)c1ccc(Oc2ccccc2)cc1` [Compound 115] ({Benzoyl(4-OPh)-GABA}-[Sar]DAL[NMeI]P-NH2; N-terminus assumed), the pIC50 is 9.38.
With `CC[C@H](C)[C@@H](C(=O)N1CCC[C@H]1C(N)=O)N(C)C(=O)[C@H](CC(C)C)NC(=O)[C@H](C)NC(=O)[C@H](CC(=O)O)NC(=O)[C@H](CC(N)=O)N(C)C(=O)CCCNC(=O)c1ccc(Oc2ccccc2)cc1` [Compound 94] ({Benzoyl(4-OPh)-GABA}-[NMeN]DAL[NMeI]P-NH2; N-terminus assumed) the figure was 10.06.
